SMILES strings stand for the structures.

This assay deals with 5-HT2A (Homo sapiens (Human), UniProt P28223). Put plainly: Radioligand binding assay, [^3H]5-HT competition, 5-HT2A. The note with it: [^3H]5-HT radioligand, membranes of HEK293 cells expressing recombinant 5-HT2A; Ki from IC50 by Cheng-Prusoff; read-out: 5-HT2A serotonin binding Ki value.
5-HT2A, sequence (P28223 whole entry): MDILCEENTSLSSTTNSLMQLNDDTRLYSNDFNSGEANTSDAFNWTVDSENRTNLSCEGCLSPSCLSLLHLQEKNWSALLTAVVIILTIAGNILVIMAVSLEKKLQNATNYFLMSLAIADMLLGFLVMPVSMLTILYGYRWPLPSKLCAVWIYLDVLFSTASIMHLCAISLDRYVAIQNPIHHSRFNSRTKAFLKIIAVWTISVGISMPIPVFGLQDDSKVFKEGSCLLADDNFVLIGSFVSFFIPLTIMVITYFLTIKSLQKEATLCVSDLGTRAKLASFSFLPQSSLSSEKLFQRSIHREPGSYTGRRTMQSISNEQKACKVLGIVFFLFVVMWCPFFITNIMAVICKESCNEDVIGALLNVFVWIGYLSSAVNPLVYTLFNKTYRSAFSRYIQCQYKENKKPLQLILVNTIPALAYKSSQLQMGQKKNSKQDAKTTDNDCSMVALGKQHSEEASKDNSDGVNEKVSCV

Take `Cc1ncnc(C)c1-c1cc(NC(=O)C2CC2)ccc1OCCN1CCC2(CC1)CNC2=O` [Compound 347, N-(3-(4,6-dimethylpyrimidin-5-yl)-4-(2-(1-oxo-2,7-diazaspiro[3.5]nonan-7-yl)ethoxy)phenyl)cyclopropanecarboxamide]: the Ki came to 42.3 nM.
The value for `Cc1ncnc(C)c1-c1cc(NC(=O)C2CC2)ccc1OCCN1CCC2(CC1)CC(=O)N2` [Compound 348, N-(3-(4,6-dimethylpyrimidin-5-yl)-4-(2-(2-oxo-1,7-diazaspiro[3.5]nonan-7-yl)ethoxy)phenyl)cyclopropanecarboxamide] was 66.6 nM; that for `Cc1ncnc(C)c1-c1cc(NC(=O)C2CC2)ccc1OCCN1CCC2(CCC(=O)O2)CC1` [Compound 349, N-(3-(4,6-dimethylpyrimidin-5-yl)-4-(2-(2-oxo-1-oxa-8-azaspiro[4.5]decan-8-yl)ethoxy)phenyl)cyclopropanecarboxamide] was 12.6 nM.
With `Cc1ncnc(C)c1-c1cc(NC(=O)C2CC2)ccc1OCCN1CCC2(CCOC2=O)CC1` [Compound 350, N-(3-(4,6-dimethylpyrimidin-5-yl)-4-(2-(1-oxo-2-oxa-8-azaspiro[4.5]decan-8-yl)ethoxy)phenyl)cyclopropanecarboxamide], the Ki came to 43.1 nM.
The value for `CO[C@H]1CCN(CCOc2ccc(NC(=O)C3CC3)cc2-c2c(C)ncnc2C)C1` [Compound 352, (S)—N-(3-(4,6-dimethylpyrimidin-5-yl)-4-(2-(3-methoxypyrrolidin-1-yl)ethoxy)phenyl)cyclopropanecarboxamide] was 15.5 nM; that for `COCCN(C)CCOc1ccc(NC(=O)C2CC2)cc1-c1c(C)ncnc1C` [Compound 354, N-[3-(4,6-dimethylpyrimidin-5-yl)-4-[2-[2-methoxyethyl(methyl)amino]ethoxy]phenyl]cyclopropanecarboxamide] was 32.1 nM; that for `CCN(CCOC)CCOc1ccc(NC(=O)C2CC2)cc1-c1c(C)ncnc1C` [Compound 355, N-(3-(4,6-dimethylpyrimidin-5-yl)-4-(2-(ethyl (2-methoxyethyl)amino)ethoxy)phenyl)cyclopropanecarboxamide] was 177 nM.
The value for `CCCN(CCOC)CCOc1ccc(NC(=O)C2CC2)cc1-c1c(C)ncnc1C` [Compound 356, N-(3-(4,6-dimethylpyrimidin-5-yl)-4-(2-((2-methoxyethyl)(propyl)amino)ethoxy)phenyl)cyclopropanecarboxamide] was 533 nM; that for `Cc1ncnc(C)c1-c1cc(NC(=O)C2CC2)ccc1OCCN(C)CCO` [Compound 357, N-(3-(4,6-dimethylpyrimidin-5-yl)-4-(2-((2-hydroxyethyl)(methyl)amino)ethoxy)phenyl)cyclopropanecarboxamide] was 47.3 nM; that for `CCN(CCO)CCOc1ccc(NC(=O)C2CC2)cc1-c1c(C)ncnc1C` [Compound 358, N-(3-(4,6-dimethylpyrimidin-5-yl)-4-(2-(ethyl(2-hydroxyethyl)amino)ethoxy)phenyl)cyclopropanecarboxamide] was 66.7 nM.
Turning to `CCCN(CCO)CCOc1ccc(NC(=O)C2CC2)cc1-c1c(C)ncnc1C` [Compound 359, N-(3-(4,6-dimethylpyrimidin-5-yl)-4-(2-((2-hydroxyethyl)(propyl)amino)ethoxy)phenyl)cyclopropanecarboxamide], the inhibition constant Ki turned out to be 102 nM.
The value for `Cc1ncnc(C)c1-c1cc(NC(=O)C2CC2)ccc1OCCN(C)CCF` [Compound 360, N-(3-(4,6-dimethylpyrimidin-5-yl)-4-(2-((2-fluoroethyl)(methyl)amino)ethoxy)phenyl)cyclopropanecarboxamide] was 11 nM; that for `CCN(CCF)CCOc1ccc(NC(=O)C2CC2)cc1-c1c(C)ncnc1C` [Compound 362, N-[3-(4,6-dimethylpyrimidin-5-yl)-4-[2-[ethyl (2-fluoroethyl)amino]ethoxy]phenyl]cyclopropanecarboxamide] was 96.5 nM; that for `CCCN(CCF)CCOc1ccc(NC(=O)C2CC2)cc1-c1c(C)ncnc1C` [Compound 363, N-[3-(4,6-dimethylpyrimidin-5-yl)-4-[2-[2-fluoroethyl(propyl)amino]ethoxy]phenyl]cyclopropanecarboxamide] was 107 nM.
The value for `Cc1ncnc(C)c1-c1cc(NC(=O)C2CC2)ccc1OCCN(C)CCS(C)(=O)=O` [Compound 364, N-(3-(4,6-dimethylpyrimidin-5-yl)-4-(2-(methyl(2-(methylsulfonyl)ethyl)amino)ethoxy)phenyl)cyclopropanecarboxamide] was 368 nM.
For `Cc1ncnc(C)c1-c1cc(NC(=O)C2CC2)ccc1OCCN(C)CC[S+](C)[O-]` (stereo not shown) [Compound 365, N-[3-(4,6-dimethylpyrimidin-5-yl)-4-[2-[methyl (2-methylsulfinylethyl)amino]ethoxy]phenyl]cyclopropanecarboxamide], the Ki amounted to 232 nM.
The value for `CCN(C)CCOc1ccc(NC(=O)C2CC2)cc1-c1c(C)ncnc1C` [Compound 366, N-[3-(4,6-dimethylpyrimidin-5-yl)-4-[2-[ethyl(methyl)amino]ethoxy]phenyl]cyclopropanecarboxamide] was 11.2 nM.
Under `CCCN(C)CCOc1ccc(NC(=O)C2CC2)cc1-c1c(C)ncnc1C` [Compound 367, N-(3-(4,6-dimethylpyrimidin-5-yl)-4-(2-(methyl(propyl)amino)ethoxy)phenyl)cyclopropanecarboxamide] stands 37.6 nM; under `Cc1ncnc(C)c1-c1cc(NC(=O)C2CC2)ccc1OCCN(C)CC1CC1` [Compound 368, N-(4-(2-((cyclopropylmethyl)(methyl)amino)ethoxy)-3-(4,6-dimethylpyrimidin-5-yl)phenyl)cyclopropanecarboxamide], 19.6 nM; under `Cc1ncnc(C)c1-c1cc(NC(=O)C2CC2)ccc1OCCN(C)C1CCC1` [Compound 369, N-(4-(2-(cyclobutyl(methyl)amino)ethoxy)-3-(4,6-dimethylpyrimidin-5-yl)phenyl)cyclopropanecarboxamide], 51.8 nM.
The value for `CCN(CC)CCOc1ccc(NC(=O)C2CC2)cc1-c1c(C)ncnc1C` [Compound 370, N-(4-(2-(diethylamino)ethoxy)-3-(4,6-dimethylpyrimidin-5-yl)phenyl)cyclopropanecarboxamide] was 78.6 nM; that for `COCCNCCOc1ccc(NC(=O)c2ccccc2)cc1-c1c(C)ncnc1C` [Compound 371, N-(3-(4,6-dimethylpyrimidin-5-yl)-4-(2-((2-methoxyethyl)amino)ethoxy)phenyl)benzamide] was 4.77 nM; that for `COCCNCCOc1ccc(NC(=O)c2cccc(OC)c2)cc1-c1c(C)ncnc1C` [Compound 372, N-(3-(4,6-dimethylpyrimidin-5-yl)-4-(2-((2-methoxyethyl)amino)ethoxy)phenyl)-3-methoxybenzamide] was 1.99 nM.
Regarding `COCCNCCOc1ccc(NC(=O)c2cccc(F)c2)cc1-c1c(C)ncnc1C` [Compound 373, N-(3-(4,6-dimethylpyrimidin-5-yl)-4-(2-((2-methoxyethyl)amino)ethoxy)phenyl)-3-fluorobenzamide], the Ki was found to be 1.73 nM.
The value for `COCCNCCOc1ccc(NC(=O)c2ccc(F)cc2)cc1-c1c(C)ncnc1C` [Compound 374, N-(3-(4,6-dimethylpyrimidin-5-yl)-4-(2-((2-methoxyethyl)amino)ethoxy)phenyl)-4-fluorobenzamide] was 3.44 nM.

One may read the Ki as the equilibrium dissociation constant of an inhibitor or competing ligand from its target.
